Series [1] concerns the target T1, human platelet 12-lipoxygenase (h12-LOX) (Homo sapiens, UniProt P18054).
T1 construct: gene ALOX12; Nt-6His-tag recombinant enzyme expressed in Sf9
T1 sequence (P18054 1-663): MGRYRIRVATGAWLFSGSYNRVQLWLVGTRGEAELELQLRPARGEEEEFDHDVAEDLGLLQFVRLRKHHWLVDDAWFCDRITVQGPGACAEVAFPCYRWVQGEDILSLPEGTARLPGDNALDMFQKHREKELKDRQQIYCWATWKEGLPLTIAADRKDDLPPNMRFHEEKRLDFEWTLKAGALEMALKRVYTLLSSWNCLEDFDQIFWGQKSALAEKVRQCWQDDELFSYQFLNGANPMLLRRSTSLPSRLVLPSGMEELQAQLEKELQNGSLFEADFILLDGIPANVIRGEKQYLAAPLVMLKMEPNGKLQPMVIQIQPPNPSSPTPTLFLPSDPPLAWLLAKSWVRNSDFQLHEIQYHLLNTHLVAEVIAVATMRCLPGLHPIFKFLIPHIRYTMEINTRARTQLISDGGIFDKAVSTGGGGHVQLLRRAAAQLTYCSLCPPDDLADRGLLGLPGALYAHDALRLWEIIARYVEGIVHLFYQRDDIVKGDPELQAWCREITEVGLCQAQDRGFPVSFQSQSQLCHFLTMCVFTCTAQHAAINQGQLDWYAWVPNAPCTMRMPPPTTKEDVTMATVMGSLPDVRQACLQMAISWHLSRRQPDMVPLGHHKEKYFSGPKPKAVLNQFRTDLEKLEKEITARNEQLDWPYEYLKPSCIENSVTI
The series is described as follows: steady-state Michaelis-Menten kinetics ([…] nm), kcat/KM at […] °C; LC-MS/MS products. The class given is biochemical.

Series [2] deals with T2, human platelet 12-lipoxygenase (h12-LOX) Y649C (Homo sapiens, UniProt P18054, Y649C).
T2 construct: gene ALOX12; Nt-6His-tag recombinant enzyme expressed in Sf9
T2 sequence (P18054 1-663 Y649C): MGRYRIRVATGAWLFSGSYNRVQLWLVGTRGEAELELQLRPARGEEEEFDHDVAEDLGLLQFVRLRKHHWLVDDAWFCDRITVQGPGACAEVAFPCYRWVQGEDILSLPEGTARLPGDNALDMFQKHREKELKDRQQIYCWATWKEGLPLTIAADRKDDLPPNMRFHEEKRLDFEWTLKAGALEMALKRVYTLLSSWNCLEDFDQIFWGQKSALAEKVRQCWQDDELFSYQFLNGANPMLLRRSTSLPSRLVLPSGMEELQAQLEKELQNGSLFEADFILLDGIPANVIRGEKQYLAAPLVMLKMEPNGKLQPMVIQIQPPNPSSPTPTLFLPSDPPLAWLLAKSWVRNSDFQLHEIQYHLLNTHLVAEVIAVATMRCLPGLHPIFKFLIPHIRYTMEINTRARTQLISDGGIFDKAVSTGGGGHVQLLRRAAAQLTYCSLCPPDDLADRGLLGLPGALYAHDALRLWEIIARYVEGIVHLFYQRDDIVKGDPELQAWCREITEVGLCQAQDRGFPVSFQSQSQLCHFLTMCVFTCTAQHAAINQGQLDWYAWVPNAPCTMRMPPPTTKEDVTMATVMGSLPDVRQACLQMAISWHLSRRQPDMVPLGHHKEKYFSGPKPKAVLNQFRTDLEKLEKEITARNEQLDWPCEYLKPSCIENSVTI
The description is as above. The class given is biochemical.

In series [3] the target is T2, human platelet 12-lipoxygenase (h12-LOX) Y649C. The description is as above. The class given is biochemical. The source holds these as a separate data set.
Series [4] addresses T1, human platelet 12-lipoxygenase (h12-LOX). The series is described as above. Format: biochemical. The source holds these as a separate data set.
Series [5] concerns the target T3, wild-type human platelet 12S-lipoxygenase (human), P18054.
T3 chain: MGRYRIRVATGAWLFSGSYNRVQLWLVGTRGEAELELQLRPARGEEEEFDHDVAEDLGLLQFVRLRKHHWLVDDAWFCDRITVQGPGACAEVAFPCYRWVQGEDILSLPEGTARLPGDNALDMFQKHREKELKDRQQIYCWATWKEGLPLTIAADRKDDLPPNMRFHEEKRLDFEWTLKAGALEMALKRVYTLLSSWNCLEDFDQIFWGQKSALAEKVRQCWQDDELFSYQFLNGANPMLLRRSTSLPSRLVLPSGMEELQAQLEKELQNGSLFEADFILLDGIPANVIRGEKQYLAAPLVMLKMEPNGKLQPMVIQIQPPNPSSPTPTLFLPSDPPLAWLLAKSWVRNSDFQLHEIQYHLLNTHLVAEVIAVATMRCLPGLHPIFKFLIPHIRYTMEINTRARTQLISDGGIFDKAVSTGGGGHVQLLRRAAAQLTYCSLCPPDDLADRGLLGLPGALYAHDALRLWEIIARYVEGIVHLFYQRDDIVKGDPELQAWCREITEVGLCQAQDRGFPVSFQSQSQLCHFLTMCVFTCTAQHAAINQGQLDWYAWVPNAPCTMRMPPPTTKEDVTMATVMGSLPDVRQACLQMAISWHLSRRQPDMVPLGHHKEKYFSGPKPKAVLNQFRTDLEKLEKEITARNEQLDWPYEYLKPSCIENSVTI
In words: SEC; affinity-purified protein on Superdex 75 10/300 GL, 25 mM HEPES (pH 8), 0.3 mL/min; elution compared with gel filtration standards. As to conditions: remark: other sources report otherwise. (In general: SEC sorts molecules by how far they enter the pores of the column.)

Series [6] concerns the molecule itself. The description is as above.

As for `CCCCC/C=C\C/C=C\C/C=C\C/C=C\CCCC(=O)O` [AA, arachidonic acid], the “kcat/KM (μM^-1sec^-1) / WT” value in series [1] was 8.7 µM⁻¹ s⁻¹. Besides, the “kcat/KM (μM^-1sec^-1) / Y649C” value in series [2] was determined as 6 µM⁻¹ s⁻¹.
Turning to `CC/C=C\C/C=C\C/C=C\C/C=C\C/C=C\C/C=C\CCC(=O)O` [DHA, docosahexaenoic acid], the “steady-state Michaelis-Menten kinetics (234 nm), kcat/KM at 22 °C; LC-MS/MS prod” value was determined as 960000 M⁻¹ s⁻¹ in series [3] and 7.7e+06 M⁻¹ s⁻¹ in series [4].

B1: wild-type human platelet 12S-lipoxygenase, P18054 1-663 (enzyme)
chain: MGRYRIRVATGAWLFSGSYNRVQLWLVGTRGEAELELQLRPARGEEEEFDHDVAEDLGLLQFVRLRKHHWLVDDAWFCDRITVQGPGACAEVAFPCYRWVQGEDILSLPEGTARLPGDNALDMFQKHREKELKDRQQIYCWATWKEGLPLTIAADRKDDLPPNMRFHEEKRLDFEWTLKAGALEMALKRVYTLLSSWNCLEDFDQIFWGQKSALAEKVRQCWQDDELFSYQFLNGANPMLLRRSTSLPSRLVLPSGMEELQAQLEKELQNGSLFEADFILLDGIPANVIRGEKQYLAAPLVMLKMEPNGKLQPMVIQIQPPNPSSPTPTLFLPSDPPLAWLLAKSWVRNSDFQLHEIQYHLLNTHLVAEVIAVATMRCLPGLHPIFKFLIPHIRYTMEINTRARTQLISDGGIFDKAVSTGGGGHVQLLRRAAAQLTYCSLCPPDDLADRGLLGLPGALYAHDALRLWEIIARYVEGIVHLFYQRDDIVKGDPELQAWCREITEVGLCQAQDRGFPVSFQSQSQLCHFLTMCVFTCTAQHAAINQGQLDWYAWVPNAPCTMRMPPPTTKEDVTMATVMGSLPDVRQACLQMAISWHLSRRQPDMVPLGHHKEKYFSGPKPKAVLNQFRTDLEKLEKEITARNEQLDWPYEYLKPSCIENSVTI
What is called stoichiometry N is a count of units in the complex or per binding partner. In the case of B1, the stoichiometry N in series [5] is 2.

B2: Y649C h12-LOX (enzyme, human, UniProt P18054 1-663, looked up)
chain: MGRYRIRVATGAWLFSGSYNRVQLWLVGTRGEAELELQLRPARGEEEEFDHDVAEDLGLLQFVRLRKHHWLVDDAWFCDRITVQGPGACAEVAFPCYRWVQGEDILSLPEGTARLPGDNALDMFQKHREKELKDRQQIYCWATWKEGLPLTIAADRKDDLPPNMRFHEEKRLDFEWTLKAGALEMALKRVYTLLSSWNCLEDFDQIFWGQKSALAEKVRQCWQDDELFSYQFLNGANPMLLRRSTSLPSRLVLPSGMEELQAQLEKELQNGSLFEADFILLDGIPANVIRGEKQYLAAPLVMLKMEPNGKLQPMVIQIQPPNPSSPTPTLFLPSDPPLAWLLAKSWVRNSDFQLHEIQYHLLNTHLVAEVIAVATMRCLPGLHPIFKFLIPHIRYTMEINTRARTQLISDGGIFDKAVSTGGGGHVQLLRRAAAQLTYCSLCPPDDLADRGLLGLPGALYAHDALRLWEIIARYVEGIVHLFYQRDDIVKGDPELQAWCREITEVGLCQAQDRGFPVSFQSQSQLCHFLTMCVFTCTAQHAAINQGQLDWYAWVPNAPCTMRMPPPTTKEDVTMATVMGSLPDVRQACLQMAISWHLSRRQPDMVPLGHHKEKYFSGPKPKAVLNQFRTDLEKLEKEITARNEQLDWPCEYLKPSCIENSVTI
notes: human platelet 12-lipoxygenase (h12-LOX), UniProt P18054, with the naturally occurring SNP Y649C made by site-directed mutagenesis; numbering as in UniProt P18054; Variant found in a family with a bleeding diathesis; metal content 20% by ICP-MS; also called Y649C SNP variant of h12-LOX
For the molecule B2, the “stoichiometry N” value in series [6] is 2.
